Source: US9981975B2, “Pyrrolotriazine compounds as tam inhibitors” (Incyte Corporation, priority 2016, dated 2018)

Assays:
Assay type in all cases: biochemical
c-Mer = c-Mer (Homo sapiens (Human), UniProt Q12866); assay: TAM Enzymatic Assay (HTRF), Mer; details: 60 min, room temperature
Experimental: (§1) The kinase assay buffer contained 50 mM HEPES, pH7.5, 10 mM MgCl2, 1 mM EGTA, 0.01% NP-40 and 2 mM DTT. 0.1 ul test compounds dissolved in DMSO were transferred from compound plates to white 384-well assay plates (Greiner […] plates). […] 4 ul enzyme solution (or assay buffer for the enzyme blank) was added to the appropriate wells in each plate, and then 4 ul/well substrate solution was added to initiate the reaction. The plate was protected from light and incubated at room temperature for 60 min. […] The plate was incubated for 1 h at room temperature, and HTRF (homogenous time resolved fluorescence) signal was measured on a PHERAstar FS plate reader (BMG labtech). Percentage of inhibition was calculated for each concentration and IC50 value was generated from curve fitting with GraphPad Prism software.

Tyro3 = Tyro3 (Homo sapiens (Human), UniProt Q06418); assay: TAM Enzymatic Assay (HTRF), Tyro3; details: Tyro3, 60 min, room temperature
Experimental: as §1

phosphor-Axl = phosphor-Axl (Homo sapiens (Human), UniProt P30530); assay: TAM Enzymatic Assay (HTRF), Axl; details: recombinant autophosphorylated Axl, 60 min, room temperature
Experimental: Autophosphorylation of Axl was carried out by incubating the recombinant Axl protein (Life Technologies, PV4275) in buffer containing 50 mM Tris, pH7.5, 0.2 mg/ml Axl, 5 mM ATP, 20 mM MgCl2 and 2 mM DTT at room temperature for 1 hour.
as §1

Sequence of Tyro3 (Q06418 41-890): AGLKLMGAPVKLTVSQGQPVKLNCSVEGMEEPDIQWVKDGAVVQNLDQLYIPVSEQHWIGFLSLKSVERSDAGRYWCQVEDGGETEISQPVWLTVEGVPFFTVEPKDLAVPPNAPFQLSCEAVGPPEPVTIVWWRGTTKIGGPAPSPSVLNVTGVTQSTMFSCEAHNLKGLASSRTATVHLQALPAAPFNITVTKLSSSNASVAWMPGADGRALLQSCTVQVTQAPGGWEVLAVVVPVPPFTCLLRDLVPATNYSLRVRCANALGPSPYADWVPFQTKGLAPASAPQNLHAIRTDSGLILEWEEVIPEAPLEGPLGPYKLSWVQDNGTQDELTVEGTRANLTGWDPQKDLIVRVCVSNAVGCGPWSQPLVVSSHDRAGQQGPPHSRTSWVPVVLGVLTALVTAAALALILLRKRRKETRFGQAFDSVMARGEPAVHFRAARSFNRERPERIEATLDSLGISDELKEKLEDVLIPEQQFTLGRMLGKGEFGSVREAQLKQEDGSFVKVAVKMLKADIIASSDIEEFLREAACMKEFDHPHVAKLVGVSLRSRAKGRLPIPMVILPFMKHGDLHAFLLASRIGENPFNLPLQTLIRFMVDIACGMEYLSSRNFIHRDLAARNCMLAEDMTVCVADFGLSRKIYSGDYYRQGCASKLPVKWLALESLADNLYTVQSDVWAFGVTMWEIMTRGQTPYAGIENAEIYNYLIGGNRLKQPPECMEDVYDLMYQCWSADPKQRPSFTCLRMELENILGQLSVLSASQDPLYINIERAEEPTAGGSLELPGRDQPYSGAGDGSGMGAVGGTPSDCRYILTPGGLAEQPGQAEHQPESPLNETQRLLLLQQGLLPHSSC
Sequence of phosphor-Axl (P30530 26-894): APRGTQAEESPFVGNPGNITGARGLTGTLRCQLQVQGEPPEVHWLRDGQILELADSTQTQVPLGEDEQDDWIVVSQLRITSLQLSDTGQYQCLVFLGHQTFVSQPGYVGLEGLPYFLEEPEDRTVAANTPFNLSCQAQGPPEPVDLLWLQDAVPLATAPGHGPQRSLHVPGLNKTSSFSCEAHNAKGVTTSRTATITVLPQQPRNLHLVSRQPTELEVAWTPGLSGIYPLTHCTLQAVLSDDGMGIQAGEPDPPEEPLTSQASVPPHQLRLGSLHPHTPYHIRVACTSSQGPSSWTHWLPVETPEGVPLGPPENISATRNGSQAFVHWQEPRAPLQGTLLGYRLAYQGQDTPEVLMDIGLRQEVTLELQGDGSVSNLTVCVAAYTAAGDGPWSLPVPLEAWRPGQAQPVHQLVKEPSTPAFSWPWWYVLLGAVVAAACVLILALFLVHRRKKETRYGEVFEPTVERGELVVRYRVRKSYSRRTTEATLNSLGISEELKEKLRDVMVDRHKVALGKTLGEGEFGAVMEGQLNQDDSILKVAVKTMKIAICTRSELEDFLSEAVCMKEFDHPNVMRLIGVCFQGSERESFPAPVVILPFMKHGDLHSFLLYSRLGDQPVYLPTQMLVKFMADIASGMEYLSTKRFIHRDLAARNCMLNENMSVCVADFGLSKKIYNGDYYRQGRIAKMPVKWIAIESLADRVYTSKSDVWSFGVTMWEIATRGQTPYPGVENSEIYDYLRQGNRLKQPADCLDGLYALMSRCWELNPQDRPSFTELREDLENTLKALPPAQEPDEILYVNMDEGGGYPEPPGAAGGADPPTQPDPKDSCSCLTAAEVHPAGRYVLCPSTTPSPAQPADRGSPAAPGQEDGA
Sequence of c-Mer (Q12866 21-999): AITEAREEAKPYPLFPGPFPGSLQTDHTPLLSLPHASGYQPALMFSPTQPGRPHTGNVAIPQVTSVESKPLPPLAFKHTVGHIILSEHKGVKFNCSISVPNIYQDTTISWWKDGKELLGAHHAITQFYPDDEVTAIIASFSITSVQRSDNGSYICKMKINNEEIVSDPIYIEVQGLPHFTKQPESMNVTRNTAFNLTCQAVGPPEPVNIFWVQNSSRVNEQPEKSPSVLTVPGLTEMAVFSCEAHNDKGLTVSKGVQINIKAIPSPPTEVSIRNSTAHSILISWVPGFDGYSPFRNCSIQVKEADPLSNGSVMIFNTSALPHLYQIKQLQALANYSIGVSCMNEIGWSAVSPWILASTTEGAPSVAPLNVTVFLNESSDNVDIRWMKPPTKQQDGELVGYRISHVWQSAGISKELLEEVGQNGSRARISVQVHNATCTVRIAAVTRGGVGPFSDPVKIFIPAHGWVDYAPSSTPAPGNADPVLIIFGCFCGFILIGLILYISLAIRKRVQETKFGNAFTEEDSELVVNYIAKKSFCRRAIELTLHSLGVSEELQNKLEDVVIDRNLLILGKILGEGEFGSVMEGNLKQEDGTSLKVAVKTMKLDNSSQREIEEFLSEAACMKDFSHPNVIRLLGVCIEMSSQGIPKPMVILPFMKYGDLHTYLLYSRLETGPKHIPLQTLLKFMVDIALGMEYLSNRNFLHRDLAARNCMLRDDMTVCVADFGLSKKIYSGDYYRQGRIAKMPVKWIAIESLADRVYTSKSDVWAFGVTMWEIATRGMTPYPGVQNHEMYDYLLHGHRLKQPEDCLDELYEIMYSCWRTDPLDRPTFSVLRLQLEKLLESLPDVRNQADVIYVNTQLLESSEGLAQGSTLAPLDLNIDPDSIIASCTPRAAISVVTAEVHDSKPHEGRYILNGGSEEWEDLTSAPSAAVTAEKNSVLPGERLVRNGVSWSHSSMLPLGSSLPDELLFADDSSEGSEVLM

IC50 (c-Mer)	IC50 (Tyro3)	IC50 (phosphor-Axl)	SMILES
≤ 5 nM	–	–	Nc1ncnn2c1c(-c1ccc(NC(=O)c3cccn(-c4ccccc4)c3=O)cc1)cc2[C@H]1CC[C@@H](O)CC1 [7 (cis isomer), N-{4-[4-Amino-7-(cis-4-hydroxycyclohexyl)pyrrolo[2,1-f][1,2,4]triazin-5-yl]phenyl}-2-oxo-1-phenyl-1,2-dihydropyridine-3-carboxamide]
–	> 100 nM	≤ 5 nM	CCN(C)C(=O)N1CCC(c2cc(-c3ccc(NC(=O)c4cc5c(n(-c6ccc(F)cc6)c4=O)CCCC5=O)cc3F)c3c(N)ncnn23)CC1 [Example 58, N-{4-[4-Amino-7-(1-{[ethyl(methyl)amino]carbonyl}piperidin-4-yl)pyrrolo[2,1-f][1,2,4]triazin-5-yl]-3-fluorophenyl}-1-(4-fluorophenyl)-2,5-dioxo-1,2,5,6,7,8-hexahydroquinoline-3-carboxamide]
–	> 100 nM	≤ 5 nM	Cc1cccc(-n2c(=O)c(C(=O)Nc3ccc(-c4cc(C5CCN(C(=O)C(C)C)CC5)n5ncnc(N)c45)cc3)cn(C(C)C)c2=O)n1 [Example 149, N-(4-(4-Amino-7-(1-isobutyrylpiperidin-4-yl)pyrrolo[1,2-f][1,2,4]triazin-5-yl)phenyl)-1-isopropyl-3-(6-methylpyridin-2-yl)-2,4-dioxo-1,2,3,4-tetrahydropyrimidine-5-carboxamide]
–	> 100 nM	≤ 5 nM	CCn1cc(C(=O)Nc2ccc(-c3cc(C4CCN(C(=O)C(C)C)CC4)n4ncnc(N)c34)cc2)c(=O)n(-c2cccc(F)c2)c1=O [Example 73, N-(4-(4-Amino-7-(1-isobutyrylpiperidin-4-yl)pyrrolo[1,2-f][1,2,4]triazin-5-yl)phenyl)-1-ethyl-3-(3-fluorophenyl)-2,4-dioxo-1,2,3,4-tetrahydropyrimidine-5-carboxamide]
–	> 100 nM	≤ 5 nM	CCN(C)C(=O)N1CCC(c2cc(-c3ccc(NC(=O)c4cc5c(n(-c6ccc(F)cc6)c4=O)CCCC5=O)cc3)c3c(N)ncnn23)CC1 [Example 57, N-{4-[4-Amino-7-(1-{[ethyl(methyl)amino]carbonyl}piperidin-4-yl)pyrrolo[2,1-f][1,2,4]triazin-5-yl]phenyl}-1-(4-fluorophenyl)-2,5-dioxo-1,2,5,6,7,8-hexahydroquinoline-3-carboxamide]
–	> 100 nM	≤ 5 nM	Cc1c(-c2ccnn2C)cc(C(=O)Nc2ccc(-c3cc(C4CCN(C(=O)C(C)C)CC4)n4ncnc(N)c34)cc2)c(=O)n1-c1cccnc1 [Example 134, N-(4-(4-Amino-7-(1-isobutyrylpiperidin-4-yl)pyrrolo[2,1-f][1,2,4]triazin-5-yl)phenyl)-6-methyl-5-(1-methyl-1H-pyrazol-5-yl)-2-oxo-2H-[1,3′-bipyridine]-3-carboxamide]
≤ 5 nM	–	–	Nc1ncnn2c(C3CCN(CCO)CC3)cc(-c3ccc(NC(=O)c4cccn(-c5ccc(F)cc5)c4=O)cc3)c12 [Example 53, N-(4-{4-Amino-7-[1-(2-hydroxyethyl)piperidin-4-yl]pyrrolo[2,1-f][1,2,4]triazin-5-yl}phenyl)-1-(4-fluorophenyl)-2-oxo-1,2-dihydropyridine-3-carboxamide]
–	> 100 nM	≤ 5 nM	Cc1c(N2CCOCC2)cc(C(=O)Nc2ccc(-c3cc(C4CCN(C(=O)C(C)C)CC4)n4ncnc(N)c34)cc2)c(=O)n1-c1ccccc1 [Example 110, N-{4-[4-Amino-7-(1-isobutyrylpiperidin-4-yl)pyrrolo[2,1-f][1,2,4]triazin-5-yl]phenyl}-6-methyl-5-morpholin-4-yl-2-oxo-1-phenyl-1,2-dihydropyridine-3-carboxamide]
–	> 100 nM	≤ 5 nM	Cc1cc(C(=O)N(C)C)ncc1-c1cc(-c2ccc(NC(=O)c3cn(C(C)C)c(=O)n(-c4ccccc4)c3=O)cc2)c2c(N)ncnn12 [Example 85, N-(4-(4-amino-7-(6-(dimethylcarbamoyl)-4-methylpyridin-3-yl)pyrrolo[1,2-f][1,2,4]triazin-5-yl)phenyl)-1-isopropyl-2,4-dioxo-3-phenyl-1,2,3,4-tetrahydropyrimidine-5-carboxamide]
–	> 100 nM	≤ 5 nM	Cc1cc(-n2c(=O)c(C(=O)Nc3ccc(-c4cc(C5CCN(C(=O)C(C)C)CC5)n5ncnc(N)c45)cc3)cn(C(C)C)c2=O)nn1C [Example 148, N-(4-(4-Amino-7-(1-isobutyrylpiperidin-4-yl)pyrrolo[1,2-f][1,2,4]triazin-5-yl)phenyl)-3-(1,5-dimethyl-1H-pyrazol-3-yl)-1-isopropyl-2,4-dioxo-1,2,3,4-tetrahydropyrimidine-5-carboxamide]
–	> 100 nM	≤ 5 nM	CCN(C)C(=O)N1CCC(c2cc(-c3ccc(NC(=O)c4cn(C(C)C)c(=O)n(-c5ccccc5F)c4=O)cc3)c3c(N)ncnn23)CC1 [Example 69, N-(4-(4-Amino-7-(1-(ethyl(methyl)carbamoyl)piperidin-4-yl)pyrrolo[1,2-f][1,2,4]triazin-5-yl)phenyl)-3-(2-fluorophenyl)-1-isopropyl-2,4-dioxo-1,2,3,4-tetrahydropyrimidine-5-carboxamide]
–	> 100 nM	≤ 5 nM	Cc1ncccc1-c1c(C)n(C2CC2)cc(C(=O)Nc2ccc(-c3cc(C4CCN(C(=O)C(C)C)CC4)n4ncnc(N)c34)cc2)c1=O [Example 142, N-(4-(4-Amino-7-(1-isobutyrylpiperidin-4-yl)pyrrolo[2,1-f][1,2,4]triazin-5-yl)phenyl)-1-cyclopropyl-2,2′-dimethyl-4-oxo-1,4-dihydro-[3,3′-bipyridine]-5-carboxamide]
–	> 100 nM	≤ 5 nM	CC(C)n1cc(C(=O)Nc2ccc(-c3cc(CN4CCOCC4)n4ncnc(N)c34)cc2)c(=O)n(-c2ccccc2)c1=O [Example 95, N-(4-(4-Amino-7-(morpholinomethyl)pyrrolo[1,2-f][1,2,4]triazin-5-yl)phenyl)-1-isopropyl-2,4-dioxo-3-phenyl-1,2,3,4-tetrahydropyrimidine-5-carboxamide]
–	> 100 nM	≤ 5 nM	Cc1c(-c2cnn(C)c2)cc(C(=O)Nc2ccc(-c3cc(C4CCN(C(=O)C(C)C)CC4)n4ncnc(N)c34)cc2)c(=O)n1-c1ccccc1 [Example 107, N-{4-[4-Amino-7-(1-isobutyrylpiperidin-4-yl)pyrrolo[2,1-f][1,2,4]triazin-5-yl]phenyl}-6-methyl-5-(1-methyl-1H-pyrazol-4-yl)-2-oxo-1-phenyl-1,2-dihydropyridine-3-carboxamide]
–	> 100 nM	≤ 5 nM	CC(C)C(=O)N1CCC(c2cc(-c3ccc(NC(=O)c4cn(C5CC5)c(=O)n(-c5cccnc5)c4=O)cc3)c3c(N)ncnn23)CC1 [Example 140, N-(4-(4-Amino-7-(1-isobutyrylpiperidin-4-yl)pyrrolo[2,1-f][1,2,4]triazin-5-yl)phenyl)-1-cyclopropyl-2,4-dioxo-3-(pyridin-3-yl)-1,2,3,4-tetrahydropyrimidine-5-carboxamide]
–	> 100 nM	≤ 5 nM	Cc1cc(NC(=O)c2cn(C(C)C)c(=O)n(-c3ccccc3)c2=O)ccc1-c1cc(C2CCN(C(=O)C(C)C)CC2)n2ncnc(N)c12 [Example 77, N-(4-(4-Amino-7-(1-isobutyrylpiperidin-4-yl)pyrrolo[1,2-f][1,2,4]triazin-5-yl)-3-methylphenyl)-1-isopropyl-2,4-dioxo-3-phenyl-1,2,3,4-tetrahydropyrimidine-5-carboxamide]
–	> 100 nM	≤ 5 nM	CC(C)C(=O)N1CCC(c2cc(-c3ccc(NC(=O)c4cn(C(C)C)c(=O)n(-c5ncccn5)c4=O)cc3)c3c(N)ncnn23)CC1 [Example 143, N-(4-(4-Amino-7-(1-isobutyrylpiperidin-4-yl)pyrrolo[1,2-f][1,2,4]triazin-5-yl)phenyl)-1-isopropyl-2,4-dioxo-3-(pyrimidin-2-yl)-1,2,3,4-tetrahydropyrimidine-5-carboxamide]
–	> 100 nM	≤ 5 nM	Cc1c(Cl)cc(C(=O)Nc2ccc(-c3cc(C4CCN(C(=O)C(C)C)CC4)n4ncnc(N)c34)cc2)c(=O)n1-c1ccccn1 [Example 124, N-(4-(4-Amino-7-(1-isobutyrylpiperidin-4-yl)pyrrolo[2,1-f][1,2,4]triazin-5-yl)phenyl)-5-chloro-6-methyl-2-oxo-2H-[1,2′-bipyridine]-3-carboxamide]
–	> 100 nM	≤ 5 nM	CCOCc1c(C#N)cc(C(=O)Nc2ccc(-c3cc(C4CCN(C(=O)C(C)C)CC4)n4ncnc(N)c34)cc2)c(=O)n1-c1ccccc1 [Example 137, N-(4-(4-Amino-7-(1-isobutyrylpiperidin-4-yl)pyrrolo[2,1-f][1,2,4]triazin-5-yl)phenyl)-5-cyano-6-(ethoxymethyl)-2-oxo-1-phenyl-1,2-dihydropyridine-3-carboxamide]
–	> 100 nM	≤ 5 nM	CC(C)C(=O)N1CCC(c2cc(-c3ccc(NC(=O)c4cn(C(C)C)c(=O)n(-c5cccc(C#N)c5)c4=O)cc3)c3c(N)ncnn23)CC1 [Example 91, N-(4-(4-Amino-7-(1-isobutyrylpiperidin-4-yl)pyrrolo[2,1-f][1,2,4]triazin-5-yl)phenyl)-3-(3-cyanophenyl)-1-isopropyl-2,4-dioxo-1,2,3,4-tetrahydropyrimidine-5-carboxamide]
